Values joined by “and” are separate entries in the source; they are usually repeats but may differ in a detail not shown here. Identical values can stand only once. Inconclusive results and toxic doses are left out. Rule for the calls: active = survival T/C of 150% or more; inactive = T/C below 125% in these data. Non-standard residues stand in square brackets, D forms with d. Residues, ends and D or L forms follow the SMILES beside them. ξ: configuration not given here. *: point of attachment. Cbz = O=C(OCc1ccccc1)*; ξK = NCCCCC(N)C(=O)O
Tested on: BDF1 mice, P388 leukemia ip, median survival T/C
Experiment: NCI In Vivo Anticancer Drug Screen. Data for tumor model P388 Leukemia (intraperitoneal) in B6D2F1 (BDF1) mice
Details: endpoint: median survival time, higher = longer survival
Method in brief: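 Steps: implant the tumour, treat one group with compound and another with vehicle, record survival, then divide treated by control.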

[1] = dose: 12.5 mg/kg/injection, schedule: Q01DX009 (ip), vehicle: Klucel (hydroxypropylcellulose) (HPC)
[2] = dose: 100.0 mg/kg/injection, schedule: Q04DX003 (ip), vehicle: saline
[3] = dose: 200.0 mg/kg/injection, schedule: Q04DX003 (ip), vehicle: saline
[4] = dose: 25.0 mg/kg/injection, schedule: Q01DX009 (ip), vehicle: Klucel (hydroxypropylcellulose) (HPC)
[5] = dose: 50.0 mg/kg/injection, schedule: Q01DX009 (ip), vehicle: Klucel (hydroxypropylcellulose) (HPC)
[6] = dose: 100.0 mg/kg/injection, schedule: Q04DX003 (ip), vehicle: Klucel (hydroxypropylcellulose) (HPC)
[7] = dose: 400.0 mg/kg/injection, schedule: Q04DX003 (ip), vehicle: Klucel (hydroxypropylcellulose) (HPC)
[8] = dose: 100.0 mg/kg/injection, schedule: Q04DX003 (ip), vehicle: saline with Tween-80
[9] = dose: 200.0 mg/kg/injection, schedule: Q04DX003 (ip), vehicle: saline with Tween-80
[10] = dose: 400.0 mg/kg/injection, schedule: Q04DX003 (ip), vehicle: saline with Tween-80
[11] = dose: 50.0 mg/kg/injection, schedule: Q01DX009 (ip), vehicle: saline with Tween-80
[12] = dose: 200.0 mg/kg/injection, schedule: Q01DX009 (ip), vehicle: saline with Tween-80
[13] = dose: 100.0 mg/kg/injection, schedule: Q01DX009 (ip), vehicle: Klucel (hydroxypropylcellulose) (HPC)
[14] = dose: 200.0 mg/kg/injection, schedule: Q01DX009 (ip), vehicle: Klucel (hydroxypropylcellulose) (HPC)
[15] = dose: 200.0 mg/kg/injection, schedule: Q04DX003 (ip), vehicle: Klucel (hydroxypropylcellulose) (HPC)
[16] = dose: 400.0 mg/kg/injection, schedule: Q01DX009 (ip), vehicle: Klucel (hydroxypropylcellulose) (HPC)
[17] = dose: 100.0 mg/kg/injection, schedule: Q01DX009 (ip), vehicle: saline with Tween-80
[18] = dose: 3.12 mg/kg/injection, schedule: Q01DX009 (ip), vehicle: water
[19] = dose: 3.12 mg/kg/injection, schedule: Q04DX003 (ip), vehicle: water
[20] = dose: 6.25 mg/kg/injection, schedule: Q01DX009 (ip), vehicle: water
[21] = dose: 12.5 mg/kg/injection, schedule: Q01DX009 (ip), vehicle: water
[22] = dose: 50.0 mg/kg/injection, schedule: Q01DX009 (ip), vehicle: water

Measured: T/C

C#CC[N+](CCO)(CCO)CCCCCCCCCCCCCCCCCC
inactive: dose: 3.13 mg/kg/injection, schedule: Q01DX009 (ip), vehicle: Klucel (hydroxypropylcellulose) (HPC) 110 % of control | dose: 6.25 mg/kg/injection, schedule: Q01DX009 (ip), vehicle: Klucel (hydroxypropylcellulose) (HPC) 109 % of control | [1] 113 % of control and 120 % of control

O=C(Oc1ccc([N+](=O)[O-])cc1)c1ccc(CBr)cc1
inactive: dose: 25.0 mg/kg/injection, schedule: Q01DX009 (ip), vehicle: saline 95 % of control | dose: 50.0 mg/kg/injection, schedule: Q01DX009 (ip), vehicle: saline 100 % of control | [2] 90 % of control | [3] 86 % of control

Cc1ccc([N+](=O)[O-])cc1N=C=O
inactive: [1] 96 % of control | [4] 100 % of control | [5] 96 % of control | [6] 91 % of control | [7] 91 % of control

Cc1cc(O)n(Cc2ccccc2)c(=O)c1
inactive: [8] 102 % of control | [9] 87 % of control | [10] 107 % of control

CCCCCCCCCCCC(=O)Oc1c(Cl)c(Cl)c(C#N)c(Cl)c1Cl
inactive: [11] 94 % of control | [12] 86 % of control

CC(C)(C)c1cc(CO)cc(C(C)(C)C)c1O
inactive: [13] 107 % of control | [6] 113 % of control | [14] 103 % of control | [15] 118 % of control | [16] 111 % of control | [7] 100 % of control

O=C(/C=C/c1ccc(OCc2ccccc2)cc1)c1ccccc1Br
inactive: [11] 96 % of control | [17] 107 % of control | [12] 105 % of control

COC(=O)c1oc(C(=O)OC)c(OCc2ccccc2)c1OCc1ccccc1
inactive: dose: 50.0 mg/kg/injection, schedule: Q01DX001 (ip), vehicle: saline sonified 100 % of control | dose: 100.0 mg/kg/injection, schedule: Q01DX001 (ip), vehicle: saline sonified 109 % of control | dose: 200.0 mg/kg/injection, schedule: Q01DX001 (ip), vehicle: saline sonified 90 % of control

CCOC(=O)C1C2OC(=O)C(C(=O)C2N=Nc2ccc(-c3ccc(N=NC4C(=O)C5C(=O)OC4C(C(=O)OCC)C5C4CC=CCC4)cc3)cc2)C1C1CC=CCC1 (stereo not drawn)
inactive: [17] 109 % of control | [8] 110 % of control | [12] 100 % of control | [9] 105 % of control | dose: 400.0 mg/kg/injection, schedule: Q01DX009 (ip), vehicle: saline with Tween-80 109 % of control | [10] 115 % of control

O=C(O)CCC1(c2ccccc2)CCCC1=O (stereo not drawn)
inactive: dose: 0.39 mg/kg/injection, schedule: Q01DX009 (ip), vehicle: water 95 % of control | dose: 0.39 mg/kg/injection, schedule: Q04DX003 (ip), vehicle: water 104 % of control | dose: 0.78 mg/kg/injection, schedule: Q01DX009 (ip), vehicle: water 87 % of control and 122 % of control | dose: 0.78 mg/kg/injection, schedule: Q04DX003 (ip), vehicle: water 100 % of control | dose: 1.56 mg/kg/injection, schedule: Q01DX009 (ip), vehicle: water 101 % of control and 103 % of control | dose: 1.56 mg/kg/injection, schedule: Q04DX003 (ip), vehicle: water 97 % of control | [18] 88 % of control | [19] 97 % of control | [20] 87 % of control and 101 % of control | [21] 97 % of control | [22] 87 % of control

CCCCCCCCCC(=O)CCC
inactive: [2] 100 % of control | [3] 100 % of control | dose: 400.0 mg/kg/injection, schedule: Q04DX003 (ip), vehicle: saline 104 % of control

C=CCSc1ncnc2c1ncn2C1OC(CO)C(O)C1O (stereo not drawn)
inactive: [17] 113 % of control

O=C1C(c2ccccc2)=S=C2Sc3ccccc3N12
inactive: [4] 100 % of control | dose: 25.0 mg/kg/injection, schedule: Q04DX003 (ip), vehicle: Klucel (hydroxypropylcellulose) (HPC) 90 % of control | [5] 110 % of control | dose: 50.0 mg/kg/injection, schedule: Q04DX003 (ip), vehicle: Klucel (hydroxypropylcellulose) (HPC) 90 % of control | [13] 105 % of control | [6] 100 % of control

COc1cc(/C=N/NC(=O)c2ccncc2)cc(OC)c1OC
inactive: [6] 104 % of control | [14] 122 % of control | [15] 109 % of control | [16] 122 % of control | [7] 100 % of control

COc1cc(OC)c(OC)cc1/C=N/Nc1ccc(C(=O)O)cc1
inactive: [8] 105 % of control | [9] 100 % of control | [10] 110 % of control

Clc1ccc(-c2cc[s+]s2)cc1
inactive: [18] 94 % of control | [19] 111 % of control | [20] 110 % of control | dose: 6.25 mg/kg/injection, schedule: Q04DX003 (ip), vehicle: water 100 % of control | [21] 119 % of control | dose: 12.5 mg/kg/injection, schedule: Q04DX003 (ip), vehicle: water 97 % of control | dose: 25.0 mg/kg/injection, schedule: Q01DX009 (ip), vehicle: water 119 % of control | dose: 25.0 mg/kg/injection, schedule: Q04DX003 (ip), vehicle: water 96 % of control and 117 % of control | [22] 108 % of control | dose: 50.0 mg/kg/injection, schedule: Q04DX003 (ip), vehicle: water 90 % of control and 100 % of control | dose: 100.0 mg/kg/injection, schedule: Q04DX003 (ip), vehicle: water 98 % of control

OC(CBr)(c1ccccc1)c1ccccc1
inactive: dose: 12.5 mg/kg/injection, schedule: Q04DX003 (ip), vehicle: saline with Tween-80 95 % of control | dose: 50.0 mg/kg/injection, schedule: Q04DX003 (ip), vehicle: saline with Tween-80 100 % of control and 115 % of control | [8] 99 % of control | [9] 112 % of control | [10] 111 % of control

O=C(O)Cc1nc(Cl)ccc1Cl
inactive: [11] 106 % of control | [17] 100 % of control | [12] 92 % of control

CC(C)(C)OC(=O)NC(CCCCNC(=O)OCc1ccccc1)C(=O)NC(CCCCNC(=O)OCc1ccccc1)C(=O)NC(CCCCNC(=O)OCc1ccccc1)C(=O)OCc1ccccc1 (stereo not drawn)
inactive: dose: 50.0 mg/kg/injection, schedule: Q01DX005 (ip), vehicle: saline with Tween-80 86 % of control | dose: 200.0 mg/kg/injection, schedule: Q01DX005 (ip), vehicle: saline with Tween-80 90 % of control

N#CC(Nc1ccccc1)C1CC1c1ccccc1 (stereo not drawn)
inactive: [1] 90 % of control | [4] 90 % of control | [5] 90 % of control

CC(=O)OC(C)(C)c1ccccc1[S+]1OC(C)(C)c2ccccc21 (stereo not drawn)
inactive: dose: 100.0 mg/kg/injection, schedule: Q01DX001 (ip), vehicle: other 100 % of control

NCC(=O)NC(CCCCNC(=O)OCc1ccccc1)C(=O)O (stereo not drawn) (H-Gly-[ξK](Cbz)-OH)
inactive: dose: 12.5 mg/kg/injection, schedule: Q01DX005 (ip), vehicle: saline with Tween-80 106 % of control | dose: 25.0 mg/kg/injection, schedule: Q01DX005 (ip), vehicle: saline with Tween-80 104 % of control

CC(C)c1nsc(N)c1C(N)=O
inactive: [11] 92 % of control | [17] 96 % of control

Source: PubChem BioAssay AID328 (DTP/NCI, 2004)
